Results from patent US9931379B2, “Oxyntomodulin analogs and methods of making and using same” (The Research Foundation for The State University of New York, priority 2015, dated 2018).
Starred links: 1 amine or outer side, 2 acyl side, 3 side chain; linkers in the order of their positions; H or OH if unused. Positions of bridges follow the written chain, without caps; N, C: chain ends. Non-standard residues stand in square brackets, D forms with d. Residues, ends and D or L forms follow the SMILES beside them. CH2(3,3'-bipyridine-6,6')CH2 = c1cc(C[*:1])ncc1-c1ccc(C[*:2])nc1; Biphenyl(4,4'-CH2)2 = c1cc(-c2ccc(C[*:2])cc2)ccc1C[*:1]

Legend:
GLP-1R = target: T1, GLP-1R (Homo sapiens, UniProt P43220); experiment: CRE-driven luciferase reporter assay, HEK293 cells overexpressing GLP-1R; assay type: cell-based
T1 construct: expressed in transfected cells
T1 sequence (P43220 24-463): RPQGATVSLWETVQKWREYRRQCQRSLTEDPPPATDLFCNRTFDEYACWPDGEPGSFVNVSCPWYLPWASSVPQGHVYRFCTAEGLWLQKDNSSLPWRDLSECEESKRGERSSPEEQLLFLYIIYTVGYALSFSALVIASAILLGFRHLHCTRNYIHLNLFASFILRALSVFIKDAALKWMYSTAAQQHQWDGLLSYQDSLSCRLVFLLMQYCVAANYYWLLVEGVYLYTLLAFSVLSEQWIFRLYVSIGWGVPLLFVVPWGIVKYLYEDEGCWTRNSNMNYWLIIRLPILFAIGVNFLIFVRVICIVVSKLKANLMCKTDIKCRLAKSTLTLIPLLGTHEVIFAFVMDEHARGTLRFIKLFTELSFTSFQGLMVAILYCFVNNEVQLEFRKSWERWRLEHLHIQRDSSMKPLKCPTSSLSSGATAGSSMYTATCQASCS
Method: (§1) The surviving cells (referred to as CRE-HEK293) were expanded and then transfected with a G418 selective mammalian expression plasmid encoding human GCGR or GLP-1R, followed by geneticin selection (Life technologies, Carlsbad, Calif.). Single-colony stable cell lines expressing both CRE-luciferase and GCGR/GLP-1R were then established for in vitro activity assays.
(§2) HEK293-GCGR-CRE and HEK293-GLP-1R-CRE cells were seeded in a white 384-well plate at a density of 5,000 cells per well and cultured for 24 hours in DMEM with 10% FBS at 37° C. with 5% CO2. Cells were treated with different peptides in a dose dependent manner. After 24 hours, 10 μL of Bright-Glo reagent (Promega, Madison, Wis.) was added to each well and luminescence was determined using an Envision multilabel plate reader (PerkinElmer, Waltham, Mass.). The EC50 of each peptide was calculated using GraphPad Prism 6 software (GraphPad, San Diego, Calif.).

GCGR = target: T2, GCGR (Homo sapiens, UniProt P47871); experiment: CRE-driven luciferase reporter assay, HEK293 cells overexpressing GCGR; assay type: cell-based
T2 construct: expressed in transfected cells
T2 sequence (P47871 26-477): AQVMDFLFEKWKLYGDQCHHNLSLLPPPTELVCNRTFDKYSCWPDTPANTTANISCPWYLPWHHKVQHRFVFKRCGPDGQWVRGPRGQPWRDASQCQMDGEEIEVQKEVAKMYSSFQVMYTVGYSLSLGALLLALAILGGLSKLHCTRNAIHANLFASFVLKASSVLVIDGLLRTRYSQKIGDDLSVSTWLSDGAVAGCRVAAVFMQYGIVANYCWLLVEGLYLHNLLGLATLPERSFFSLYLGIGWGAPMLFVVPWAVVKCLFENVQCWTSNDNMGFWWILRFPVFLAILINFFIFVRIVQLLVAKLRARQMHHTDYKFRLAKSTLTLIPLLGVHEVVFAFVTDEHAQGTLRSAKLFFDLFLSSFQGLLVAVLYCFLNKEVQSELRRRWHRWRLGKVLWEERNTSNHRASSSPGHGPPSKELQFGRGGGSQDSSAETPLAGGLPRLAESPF
Method: as §1, §2

[1] = In vitro half-life after incubation with freshly isolated mouse serum (GLP-1R activation assay); assay type: in vitro ADME; conditions: read-out: t1/2 in vitro (converted)
CD1 mice = experiment: Oral glucose tolerance test (OGTT); assay type: in vivo; conditions: 10 μg/mice s.c. 4 hours before oral glucose challenge
Method: CD1 mice were fasted overnight and then administered with certain amount of peptides through s.c. injection (10 μg/mice).

[2] = In vivo pharmacokinetic studies in mice; plasma peptide measured by GLP-1R reporter assay; conditions: mouse, 0.3 mg/kg
Method: All animal care and experimental procedures were approved by the Institutional Animal Care and Use Committee (IACUC) of California Institute for Biomedical Research and strictly followed the NIH guidelines for humane treatment of animals. Female CD-1 mice obtained from Charles River Limited were used after overnight food deprivation for in vivo PK studies. Peptides were dissolved in pH adjusted phosphate buffered saline (PBS, pH=7.4). 100 μL of each peptide (0.3 mg/kg) was administered to each mouse by either i.v. or s.c routes. Food was provided to mice immediately after bleeding at 30 minutes. […] The resulting supernatant plasma was then stored at −80° C. for peptide concentration determination. Peptide concentration in the plasma was determined by in vitro GLP1R activation reporter assay.
HEK 293 cells overexpressing GLP1R and CRE-Luc reporter were treated with plasma samples at different time points (5 point dose response, starting from 1:20 dilution of each plasma sample), incubated for 16 hours in DMEM with 10% FBS at 37° C. with 5% CO2, and the firefly luciferase activity was measured. At the same time, injected peptides were used to obtain standard curves and parameters for Bottom, Top, EC50, Hill Slope. Random luciferase unit (RLU) for each plasma sample was used to calculate the peptide concentrations in plasma (nmol/L), using parameters derived from the standard curve (RLU=Bottom+(Top−Bottom)/(1+10^((Log EC50−Conc.)*Hill Slope)). Peptide concentrations in plasma were obtained and plotted against time points to obtain in vivo half-life of each peptide, using WinNonLin Phoenix software (Pharsight Corp, St. Louis, Mo.).

[3] = Far-UV circular dichroism measurement; assay type: physicochemical; conditions: measure of relative amounts of 310- and α-helix
Method: The sensitivity and scan rate of the spectrophotometer were set to 100 mdeg and 50 nm/min, respectively. All peptides were dissolved in 0.1×PBS to reach final concentrations of 0.2 mg/mL.

[4] = compared to its linear counterpart
[5] = iv, intravenously injected, read-out: elimination half-life (converted)
[6] = sc, administered subcutaneously, read-out: half-life (converted)

Molecule | GLP-1R activation, result in words (GLP-1R; comparison) | GCGR activation, result in words (GCGR; comparison) | half-life [1] | increase in activity toward GLP-1R on crosslinking (GLP-1R; [4]) | blood glucose levels decreased to (CD1 mice) | half-life [2, 5] | half-life [2, 6] | ratio of [θ]222/[θ]208 [3] | increase in activity toward GCGR on crosslinking (GCGR; [4]) | greater efficacy in receptor activation (GLP-1R; compared to peptide 9, GLP-1R and GCGR) | decrease of the area under curve (AUC) of blood glucose (CD1 mice)
CC[C@H](C)[C@H](NC(=O)[C@H](CC(N)=O)NC(=O)[C@H](CC(N)=O)NC(=O)[C@H](CCCNC(=N)N)NC(=O)[C@H](CC(N)=O)NC(=O)[C@H](CCCNC(=N)N)NC(=O)[C@H](CCCCN)NC(=O)[C@@H](NC(=O)[C@H](CC(N)=O)NC(=O)[C@H](CCSC)NC(=O)[C@H](CC(C)C)NC(=O)[C@H](Cc1c[nH]c2ccccc12)NC(=O)[C@H](CS)NC(=O)[C@@H](NC(=O)[C@H](Cc1ccccc1)NC(=O)[C@H](CC(=O)O)NC(=O)[C@H](CCC(N)=O)NC(=O)[C@H](C)NC(=O)[C@H](CCCNC(=N)N)NC(=O)[C@H](CS)NC(=O)[C@H](CCC(=O)O)NC(=O)[C@H](CC(=O)O)NC(=O)[C@H](CC(C)C)NC(=O)[C@H](Cc1ccc(O)cc1)NC(=O)[C@H](CCCCN)NC(=O)[C@H](CO)NC(=O)[C@H](Cc1ccc(O)cc1)NC(=O)[C@H](CC(=O)O)NC(=O)[C@H](CO)NC(=O)[C@@H](NC(=O)[C@H](Cc1ccccc1)NC(=O)[C@@H](NC(=O)CNC(=O)[C@H](CCC(N)=O)NC(=O)[C@@H](CO)NC(=O)[C@@H](N)Cc1c[nH]cn1)[C@@H](C)O)[C@@H](C)O)C(C)C)[C@@H](C)O)C(=O)N[C@@H](C)C(N)=O [peptide 5] (H-H[dS]QGTFTSDYSKYLDECRAQDFVCWLMNTKRNRNNIA-NH2) | modest enhancement | modest enhancement | – | – | – | – | – | – | – | – | –
CC[C@H](C)[C@H](NC(=O)[C@H](CC(N)=O)NC(=O)[C@H](CC(N)=O)NC(=O)[C@H](CCCNC(=N)N)NC(=O)[C@H](CC(N)=O)NC(=O)[C@H](CCCNC(=N)N)NC(=O)[C@H](CCCCN)NC(=O)[C@@H](NC(=O)[C@H](CC(N)=O)NC(=O)[C@H](CCSC)NC(=O)[C@H](CC(C)C)NC(=O)[C@H](Cc1c[nH]c2ccccc12)NC(=O)[C@@H]1CSCc2ccc(cc2)-c2ccc(cc2)CSC[C@H](NC(=O)[C@H](CCC(=O)O)NC(=O)[C@H](CC(=O)O)NC(=O)[C@H](CC(C)C)NC(=O)[C@H](Cc2ccc(O)cc2)NC(=O)[C@H](CCCCN)NC(=O)[C@H](CO)NC(=O)[C@H](Cc2ccc(O)cc2)NC(=O)[C@H](CC(=O)O)NC(=O)[C@H](CO)NC(=O)[C@@H](NC(=O)[C@H](Cc2ccccc2)NC(=O)[C@@H](NC(=O)CNC(=O)[C@H](CCC(N)=O)NC(=O)[C@@H](CO)NC(=O)[C@@H](N)Cc2c[nH]cn2)[C@@H](C)O)[C@@H](C)O)C(=O)N[C@@H](C)C(=O)N[C@@H](C)C(=O)N[C@@H](CCCCN)C(=O)N[C@@H](CCC(=O)O)C(=O)N[C@@H](Cc2ccccc2)C(=O)N[C@@H]([C@@H](C)CC)C(=O)N1)[C@@H](C)O)C(=O)N[C@@H](C)C(N)=O [peptide 9] (H-H[dS]QGTFTSDYSKYLDECAAKEFICWLMNTKRNRNNIA-NH2; linker 17-24 via Biphenyl(4,4'-CH2)2) | – | – | 13 h | 80 fold | 40% | 1.2 h | 1.9 h | ~1.0 | 40 fold | – | –
CC[C@H](C)[C@H](NC(=O)[C@H](CC(N)=O)NC(=O)[C@H](CC(N)=O)NC(=O)[C@H](CCCNC(=N)N)NC(=O)[C@H](CC(N)=O)NC(=O)[C@H](CCCNC(=N)N)NC(=O)[C@H](CCCCN)NC(=O)[C@@H](NC(=O)[C@H](CC(N)=O)NC(=O)[C@H](CCSC)NC(=O)[C@H](CC(C)C)NC(=O)[C@H](Cc1c[nH]c2ccccc12)NC(=O)[C@@H]1CSCc2ccc(cn2)-c2ccc(nc2)CSC[C@H](NC(=O)[C@H](CCC(=O)O)NC(=O)[C@H](CC(=O)O)NC(=O)[C@H](CC(C)C)NC(=O)[C@H](Cc2ccc(O)cc2)NC(=O)[C@H](CCCCN)NC(=O)[C@H](CO)NC(=O)[C@H](Cc2ccc(O)cc2)NC(=O)[C@H](CC(=O)O)NC(=O)[C@H](CO)NC(=O)[C@@H](NC(=O)[C@H](Cc2ccccc2)NC(=O)[C@@H](NC(=O)CNC(=O)[C@H](CCC(N)=O)NC(=O)[C@@H](CO)NC(=O)[C@@H](N)Cc2c[nH]cn2)[C@@H](C)O)[C@@H](C)O)C(=O)N[C@@H](C)C(=O)N[C@@H](C)C(=O)N[C@@H](CCCCN)C(=O)N[C@@H](CCC(=O)O)C(=O)N[C@@H](Cc2ccccc2)C(=O)N[C@@H]([C@@H](C)CC)C(=O)N1)[C@@H](C)O)C(=O)N[C@@H](C)C(N)=O [peptide 11] (H-H[dS]QGTFTSDYSKYLDECAAKEFICWLMNTKRNRNNIA-NH2; linker 17-24 via CH2(3,3'-bipyridine-6,6')CH2) | – | – | 13 h | – | 45% | 1.4 h | 1.9 h | ~1.0 | – | 3-4 fold | –
exendin-4 [Ex-4, reference compound] | – | – | – | – | – | – | – | – | – | – | 30%
